24 molecules from patent US20240425475A1, “COMPOUND BASED ON QUINAZOLINE-SUBSTITUTED GLUTARIMIDE SKELETON AND USE THEREOF” (GLUETACS THERAPEUTICS (SHANGHAI) CO., LTD., priority 2022, published 2024) can be followed below.

Chain of human Cereblon WT GST-tagged protein (Q96SW2 whole entry): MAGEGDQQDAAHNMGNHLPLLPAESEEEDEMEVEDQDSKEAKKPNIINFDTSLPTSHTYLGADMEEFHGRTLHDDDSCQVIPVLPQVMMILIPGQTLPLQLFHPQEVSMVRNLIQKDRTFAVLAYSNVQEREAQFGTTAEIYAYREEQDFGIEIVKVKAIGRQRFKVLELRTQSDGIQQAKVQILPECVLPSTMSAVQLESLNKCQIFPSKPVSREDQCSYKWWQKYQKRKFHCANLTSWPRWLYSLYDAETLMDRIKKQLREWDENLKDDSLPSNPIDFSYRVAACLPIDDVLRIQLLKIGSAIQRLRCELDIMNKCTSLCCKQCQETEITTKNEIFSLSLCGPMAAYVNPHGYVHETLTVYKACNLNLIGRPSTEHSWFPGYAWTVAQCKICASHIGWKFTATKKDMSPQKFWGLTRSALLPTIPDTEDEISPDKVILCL

For this experiment, the target named is human Cereblon WT GST-tagged protein (Homo sapiens (Human), UniProt Q96SW2). Description: CRBN-binding affinity, CEREBLON BINDING kit (HTRF). Conditions: HTRF inhibitory activity, binding to CRBN. The text has this:
Determination of CRBN-Binding Affinity of Compounds
The CEREBLON BINDING kits (specification: 10,000 tests; product number: Catalog #64BDCRBNPEH; CISBIO company) was used to determine the CRBN binding ability of the compounds to be tested through a HTRF method (homogeneous time-resolved fluorescence). The specific methods are as follows: • 1. According to the instructions of the CEREBLON BINDING kits, the compounds to be tested of the present invention and lenalidomide were serially diluted using diluent #9 (1×) solution to obtain a final concentration of 2 μM for both the tested compounds and lenalidomide solution. • 2.2.5 μL of the above 2 μM of the tested compounds and lenalidomide solution, as well as the same volume of diluent #9 (1×) solution (solvent control group, Std0) were taken and added to each well of a 96-well plate, respectively. Then, 2.5 μL of (human Cereblon WT GST-tagged protein) solution was added to each well. Finally, 5 μL of the uniformly mixed thalidomide-Red reagent and GST Eu antibody working solution were added to each of the above wells. The final concentration of the tested compounds and lenalidomide in each well is 0.5 μM. • 3. The blank control wells were sequentially added with 2.5 μL of diluent #9 (1×) solution, 2.5 μL of PROTAC binding buffer, and 5 μL of uniformly mixed thalidomide-Red reagent and GST Eu antibody working solution. • 4. After sealing and incubating the solutions in the above wells at room temperature for 3 hours, the absorbance values at emission wavelengths of 620 nm and 665 nm were detected by the HTRF method using a Spark microplate reader (V3.1 SP1).
The corresponding CRBN binding inhibition rate was calculated using the following method: […]
Note: OD 665 nmcompound is the absorbance value of each well of the compounds to be tested of the present disclosure at an emission wavelength of 665 nm.
OD 620 nmcompound is the absorbance value of each well of the compounds to be tested of the present disclosure at an emission wavelength of 620 nm.
OD 665 nmcontrol is the absorbance value of the blank control well at an emission wavelength of 665 nm.
OD 620 nmcontrol is the absorbance value of the blank control well at an emission wavelength of 620 nm.
OD 665 nmstd0 is the absorbance value of the solvent control well at an emission wavelength of 665 nm.
OD 620 nmstd0 is the absorbance value of the solvent control well at an emission wavelength of 620 nm.
For orientation: TR-FRET usually uses a lanthanide donor and a delayed reading to cut background.
In general, IC50 refers to the concentration needed to halve the response being measured. A high value points to a need for much substance. In turn, `Cc1nc2cccc(NCCOCCNC34CC5CC(CC(C5)C3)C4)c2c(=O)n1C1CCC(=O)NC1=O` (stereo not drawn) [GT-02234, 3-(5-((2-(2-(((1s,3s)-adamantan-1-yl)amino)ethoxy)ethyl)amino)-2-methyl-4-oxoquinazolin-3(4H)-yl)piperidine-2,6-dione] registered an IC50 of 3.34 µM. In the case of `Cc1nc2cccc(NCCCNC3C4CC5CC(C4)CC3C5)c2c(=O)n1C1CCC(=O)NC1=O` (stereo not drawn) [GT-02326, 3-(5-((3-(((1r,3r,5r,7r)-adamantan-2-yl)amino)propyl)amino)-2-methyl-4-oxoquinazolin-3(4H)-yl)piperidine-2,6-dione] it was 0.7 µM; in that of `Cc1nc2cccc(NCCOCCNC34CC5CC(CC3C5)C4)c2c(=O)n1C1CCC(=O)NC1=O` (stereo not drawn) [GT-02389, 3-(5-((2-(2-(((3as,6as)-hexahydro-2,5-methanopentalen-3a(1H)-yl)amino)ethoxy)ethyl)amino)-2-methyl-4-oxoquinazolin-3(4H)-yl)piperidine-2,6-dione], 0.78 µM; in that of `Cc1nc2cccc(NCCCCNC3C4CC5CC(C4)CC3C5)c2c(=O)n1C1CCC(=O)NC1=O` (stereo not drawn) [GT-02392, 3-(5-((4-(((1r,3r,5r,7r)-adamantan-2-yl)amino)butyl)amino)-2-methyl-4-oxoquinazolin-3(4H)-yl)piperidine-2,6-dione], 0.99 µM. The molecule `Cc1nc2cccc(NCCOCCOCCNC34CC5CC(CC3C5)C4)c2c(=O)n1C1CCC(=O)NC1=O` (stereo not drawn) [GT-02497, 3-(5-((2-(2-(2-(((3as,6as)-hexahydro-2,5-methanopentalen-3a(1H)-yl)amino)ethoxy)ethoxy)ethyl)amino)-2-methyl-4-oxoquinazolin-3(4H)-yl)piperidine-2,6-dione] came in with a half-inhibitory concentration (IC50) of 0.66 µM.

`Cc1nc2cccc(NCCCCCCCN3CCCN(C)CC3)c2c(=O)n1C1CCC(=O)NC1=O` (stereo not drawn) [GT-02502, 3-(2-methyl-5-((7-(4-methyl-1,4-diazepan-1-yl)heptyl)amino)-4-oxoquinazolin-3(4H)-yl)piperidine-2,6-dione]: the IC50 turned out to be 1.8 µM. In the case of `Cc1nc2cccc(NC34CC5CC(CC(C5)C3)C4)c2c(=O)n1C1CCC(=O)NC1=O` (stereo not drawn) [GT-02601, 3-(5-(((1s,3s)-adamantan-1-yl)amino)-2-methyl-4-oxoquinazolin-3(4H)-yl)piperidine-2,6-dione] it was 2.82 µM; in that of `Cc1nc2cccc(NCCCCCCCN3CC4CC(C3)O4)c2c(=O)n1C1CCC(=O)NC1=O` (stereo not drawn) [GT-02621, 3-(5-((7-(6-oxa-3-azabicyclo[3.1.1]heptan-3-yl)heptyl)amino)-2-methyl-4-oxoquinazolin-3(4H)-yl)piperidine-2,6-dione], 1.04 µM.

In turn, `Cc1nc2cccc(NCCCCCCCN3CCC(N4CCOCC4)CC3)c2c(=O)n1C1CCC(=O)NC1=O` (stereo not drawn) [GT-02622, 3-(2-methyl-5-((7-(4-morpholinopiperidin-1-yl)heptyl)amino)-4-oxoquinazolin-3(4H)-yl)piperidine-2,6-dione] gave an IC50 of 2.48 µM. In the case of `Cc1nc2cccc(NCCCCCCCN3CCN(C4COC4)CC3)c2c(=O)n1C1CCC(=O)NC1=O` (stereo not drawn) [GT-02623, 3-(2-methyl-5-((7-(4-(oxetan-3-yl)piperazin-1-yl)heptyl)amino)-4-oxoquinazolin-3(4H)-yl)piperidine-2,6-dione] it was 2.52 µM. In the case of `Cc1nc2cccc(C#CCCCCCCN3CCN(C)CC3)c2c(=O)n1C1CCC(=O)NC1=O` (stereo not drawn) [GT-02645, 3-(2-methyl-5-(8-(4-methylpiperazin-1-yl)oct-1-yn-1-yl)-4-oxoquinazolin-3(4H)-yl)piperidine-2,6-dione] it was 2.8 µM.

In turn, `Cc1nc2cccc(CCCCCNC34CC5CC(CC(C5)C3)C4)c2c(=O)n1C1CCC(=O)NC1=O` (stereo not drawn) [GT-02759, 3-(5-(5-(((3s,5s,7s)-adamantan-1-yl)amino)pentyl)-2-methyl-4-oxoquinazolin-3(4H)-yl)piperidine-2,6-dione] yielded an IC50 of 0.05 µM.

`Cc1nc2cccc(CCCCCCCCN3CCC(N4CCN(C)CC4)CC3)c2c(=O)n1C1CCC(=O)NC1=O` (stereo not drawn) [GT-02799, 3-(2-methyl-5-(8-(4-(4-methylpiperazin-1-yl)piperidin-1-yl)octyl)-4-oxoquinazolin-3(4H)-yl)piperidine-2,6-dione] yielded an IC50 of 2.47 µM. The figure for `Cc1nc2cccc(CCCCCCCCN3CC4CC(C3)O4)c2c(=O)n1C1CCC(=O)NC1=O` (stereo not drawn) [GT-02800, 3-(5-(8-(6-oxa-3-azabicyclo[3.1.1]heptan-3-yl)octyl)-2-methyl-4-oxoquinazolin-3(4H)-yl)piperidine-2,6-dione] is 3.4 µM; for `Cc1nc2cccc(CN3CCN(CC45CC6CC(CC(C6)C4)C5)CC3)c2c(=O)n1C1CCC(=O)NC1=O` (stereo not drawn) [GT-03227, 3-(5-((4-(((3r,5r,7r)-adamantan-1-yl)methyl)piperazin-1-yl)methyl)-2-methyl-4-oxoquinazolin-3(4H)-yl)piperidine-2,6-dione] it is 2.24 µM. In the case of `Cc1nc2cccc(CN3CCNCC3)c2c(=O)n1C1CCC(=O)NC1=O` (stereo not drawn) [GT-03228, 3-(2-methyl-4-oxo-5-(piperazin-1-ylmethyl)quinazolin-3(4H)-yl)piperidine-2,6-dione] it was 1.84 µM; in that of `Cc1nc2cccc(CN3CCN(Cc4ccc(C56CC7CC(CC(C7)C5)C6)cc4)CC3)c2c(=O)n1C1CCC(=O)NC1=O` (stereo not drawn) [GT-03230, 3-(5-((4-(4-((3r,5r,7r)-adamantan-1-yl)benzyl)piperazin-1-yl)methyl)-2-methyl-4-oxoquinazolin-3(4H)-yl)piperidine-2,6-dione], 2.75 µM. In the case of `Cc1nc2cccc(C#CCN3CCN(Cc4ccc(C56CC7CC(CC(C7)C5)C6)cc4)CC3)c2c(=O)n1C1CCC(=O)NC1=O` (stereo not drawn) [GT-03233, 3-(5-(3-(4-(4-((3r,5r,7r)-adamantan-1-yl)benzyl)piperazin-1-yl)prop-1-yn-1-yl)-2-methyl-4-oxoquinazolin-3(4H)-yl)piperidine-2,6-dione] it was 2.24 µM; in that of `Cc1nc2cccc(SCCN3CCN(CC45CC6CC(CC(C6)C4)C5)CC3)c2c(=O)n1C1CCC(=O)NC1=O` (stereo not drawn) [GT-03259, 3-(5-((2-(4-(((3r,5r,7r)-adamantan-1-yl)methyl)piperazin-1-yl)ethyl)thio)-2-methyl-4-oxoquinazolin-3(4H)-yl)piperidine-2,6-dione], 2.15 µM; in that of `Cc1nc2cccc(CN3CCN(CCC45CC6CC(CC(C6)C4)C5)CC3)c2c(=O)n1C1CCC(=O)NC1=O` (stereo not drawn) [GT-03261, 3-(5-((4-(2-((3r,5r,7r)-adamantan-1-yl)ethyl)piperazin-1-yl)methyl)-2-methyl-4-oxoquinazolin-3(4H)-yl)piperidine-2,6-dione], 1 µM.

Molecule `Cc1nc2cccc(C#CCN3CCN(CCC45CC6CC(CC(C6)C4)C5)CC3)c2c(=O)n1C1CCC(=O)NC1=O` (stereo not drawn) [GT-03262, 3-(5-(3-(4-(2-((1s,3s)-adamantan-1-yl)ethyl)piperazin-1-yl)prop-1-yn-1-yl)-2-methyl-4-oxoquinazolin-3(4H)-yl)piperidine-2,6-dione] showed an IC50 of 1 µM. The figure for `Cc1nc2cccc(SCCN3CCN(Cc4ccc(C56CC7CC(CC(C7)C5)C6)cc4)CC3)c2c(=O)n1C1CCC(=O)NC1=O` (stereo not drawn) [GT-03315, 3-(5-((2-(4-(4-((1s,3s)-adamantan-1-yl)benzyl)piperazin-1-yl)ethyl)thio)-2-methyl-4-oxoquinazolin-3(4H)-yl)piperidine-2,6-dione] is 1.98 µM; for `Cc1nc2cccc(CN3CCN(C(=O)C45CC6CC(CC(C6)C4)C5)CC3)c2c(=O)n1C1CCC(=O)NC1=O` (stereo not drawn) [GT-03317, 3-(5-((4-((1s,3s)-adamantane-1-carbonyl)piperazin-1-yl)methyl)-2-methyl-4-oxoquinazolin-3(4H)-yl)piperidine-2,6-dione] it is 3.58 µM. The figure for `Cc1nc2cccc(N3C4CC3CN(CCC35CC6CC(CC(C6)C3)C5)C4)c2c(=O)n1C1CCC(=O)NC1=O` (stereo not drawn) [GT-04231, 3-(5-(3-(2-((3r,5r,7r)-adamantan-1-yl)ethyl)-3,6-diazabicyclo[3.1.1]heptan-6-yl)-2-methyl-4-oxoquinazolin-3(4H)-yl)piperidine-2,6-dione] is 3.24 µM.
